# Test results: patent US7385026B1, “Modified ghrelin polypeptides” (priority 1999, dated 2008)
# pEC50: −log10 of the molar value. Peptide text beside a SMILES is read from it. * marks the point of attachment. Octanoyl = CCCCCCCC(=O)*
# Molecular target: T1, rat GHS-receptor (GHR-R) (Rattus norvegicus, UniProt O08725)
# T1 construct: A full-length cDNA for rat GHR-R was obtained by RT-PCR; expressed in transfected cells
# Assay: Ca-releasing activity (increase in intracellular calcium) in CHO-GHSR62 cells, FLIPR
# Format: cell-based
# Details: not given
# From the text: To assay an increase in the intracellular calcium ion concentration (Ca-releasing activity) occurring upon binding of a GH secretagogue (GHS) to GHS-receptor (GHR-R), a cell strain expressing rat GHR-R was created in the following manner. A full-length cDNA for rat GHR-R was obtained by RT-PCR (reverse transcriptase-polymerase chain reaction) where a cDNA derived from rat brain was used as template. From the nucleotide sequence of known rat GHR-R [K. K. Mckee, et al, Molecular Endocrinology 11, 415-423 (1997)], sense and antisense primers consisting of the following nucleotide sequences were synthesized.
# The amplified cDNA was ligated to vector pcDNAIII (Invitrogen) to construct expression vector GHSR-pcDNAIII. CHO cells were transformed via the expression vector, and the transformed cells stably expressing GHR-R were selected in a medium containing 1 μg/ml G418. […] A change in the intracellular calcium ion concentration (Ca-releasing activity) was measured by an FLIPR system (Molecular Device). Before this measurement, 4×10^4 CHO-GHSR62 cells were put to a 96-well microplate with black wall (Corning Co., Ltd) and cultured for 12 to 15 hours. Then, the cells were incubated with 4 μM fluorescent Fluo4 (Molecular Probe Co., Ltd) for 1 hour and washed four times with Hank's BSS (Hank's Balanced Salt Solution) containing 20 mM Hepes ([N-2-hydroxyethyl]-piperazine-N-[2-ethanesulfonic acid]) and 2.5 mM probenecid, and the Ca-releasing activity was assayed by adding a sample and measuring a change in the fluorescence.
# Peptide fragments obtained by partially digested the rat- and human-derived ghrelins by various proteases, or chemically synthesized peptides, were examined for their Ca releasing activity in order to determine a core amino acid sequence and the optimum chain length of a modifying fatty acid necessary for Ca-releasing activity.
# The Ca-increasing activities of the ghrelin derivative peptide-type compounds synthesized in Example 10 and the natural ghrelin peptide were measured in the same manner as in Example 1.
# In this examination, the intracellular Ca-releasing activity in CHO cells expressing rat GSH receptor was used as the indicator.
# T1 sequence (O08725 whole entry): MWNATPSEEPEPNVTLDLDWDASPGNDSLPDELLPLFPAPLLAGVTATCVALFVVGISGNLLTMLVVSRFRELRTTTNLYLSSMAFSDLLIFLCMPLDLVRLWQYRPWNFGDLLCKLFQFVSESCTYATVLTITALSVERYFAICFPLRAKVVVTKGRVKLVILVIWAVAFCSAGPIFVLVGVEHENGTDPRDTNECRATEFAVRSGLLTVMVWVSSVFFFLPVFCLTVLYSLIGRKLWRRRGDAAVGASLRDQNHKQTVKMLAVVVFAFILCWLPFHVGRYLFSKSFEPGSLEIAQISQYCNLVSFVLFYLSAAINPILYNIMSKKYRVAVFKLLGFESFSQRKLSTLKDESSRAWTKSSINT
row,Ca-releasing activity of ghrelin (1-9) after amidation relative to before amidation,SMILES
1,about 7 times,"CCCCCCCC(=O)OC[C@H](NC(=O)[C@H](CO)NC(=O)CN)C(=O)N[C@@H](Cc1ccccc1)C(=O)N[C@@H](CC(C)C)C(=O)N[C@@H](CO)C(=O)N1CCC[C@H]1C(=O)N[C@@H](CCC(=O)O)C(=O)N[C@@H](Cc1c[nH]cn1)C(N)=O [Compound 3, Ghrelin (1-9)-amide] (H-GSS(Octanoyl)FLSPEH-NH2)"

# Same assay, conditions: CHO-GHSR62 cells (CHO cells expressing rat GHS receptor), FLIPR; read-out: Ca-releasing activity EC50
row,SMILES,pEC50
1,"CCCCCCCC(=O)OC[C@H](NC(=O)[C@H](CO)NC(=O)CN)C(=O)N[C@@H](Cc1ccccc1)C(=O)N[C@@H](CC(C)C)C(=O)N[C@@H](CO)C(=O)N1CCC[C@H]1C(=O)N[C@@H](CCC(=O)O)C(=O)N[C@@H](Cc1c[nH]cn1)C(=O)N[C@@H](CCC(N)=O)C(=O)N[C@@H](CCCNC(=N)N)C(=O)N[C@H](C(=O)N[C@@H](CCC(N)=O)C(=O)N[C@@H](CCC(N)=O)C(=O)N[C@@H](CCCNC(=N)N)C(=O)O)C(C)C [Compound 20, hGhrelin (1-15)]",8.15
2,"CCCCCCCC(=O)OC[C@H](NC(=O)[C@H](CO)NC(=O)CN)C(=O)N[C@@H](Cc1ccccc1)C(=O)N[C@@H](CC(C)C)C(=O)N[C@@H](CO)C(=O)N1CCC[C@H]1C(=O)N[C@@H](CCC(=O)O)C(=O)N[C@@H](Cc1c[nH]cn1)C(=O)N[C@@H](CCC(N)=O)C(=O)N[C@@H](CCCCN)C(=O)N[C@@H](C)C(=O)N[C@@H](CCC(N)=O)C(=O)N[C@@H](CCC(N)=O)C(=O)N[C@@H](CCCNC(=N)N)C(=O)O [Compound 21, rGhrelin (1-15)]",8.07
3,"CCCCCCCC(=O)OC[C@H](NC(=O)[C@H](CO)NC(=O)CN)C(=O)N[C@@H](Cc1ccccc1)C(=O)N[C@@H](CC(C)C)C(=O)N[C@@H](CO)C(N)=O [Compound 30, Ghrelin (1-6)-amide] (H-GSS(Octanoyl)FLS-NH2)",8.32
4,"CCCCCCCC(=O)OC[C@H](NC(=O)[C@H](CO)NC(=O)CN)C(=O)N[C@@H](Cc1ccccc1)C(=O)N[C@@H](CC(C)C)C(=O)N[C@@H](CO)C(=O)N1CCC[C@H]1C(=O)N[C@@H](CCC(=O)O)C(=O)N[C@@H](Cc1c[nH]cn1)C(N)=O [Compound 3, Ghrelin (1-9)-amide] (H-GSS(Octanoyl)FLSPEH-NH2)",8.27
5,"CC(=O)OC[C@H](NC(=O)[C@H](CO)NC(=O)CN)C(=O)N[C@@H](Cc1ccccc1)C(=O)N[C@@H](CC(C)C)C(=O)N[C@@H](CO)C(=O)N1CCC[C@H]1C(=O)N[C@@H](CCC(=O)O)C(=O)N[C@@H](Cc1c[nH]cn1)C(=O)N[C@@H](CCC(N)=O)C(=O)N[C@@H](CCCCN)C(=O)N[C@@H](C)C(=O)N[C@@H](CCC(N)=O)C(=O)N[C@@H](CCC(N)=O)C(=O)N[C@@H](CCCNC(=N)N)C(=O)N[C@@H](CCCCN)C(=O)N[C@@H](CCC(=O)O)C(=O)N[C@@H](CO)C(=O)N[C@@H](CCCCN)C(=O)N[C@@H](CCCCN)C(=O)N1CCC[C@H]1C(=O)N1CCC[C@H]1C(=O)N[C@@H](C)C(=O)N[C@@H](CCCCN)C(=O)N[C@@H](CC(C)C)C(=O)N[C@@H](CCC(N)=O)C(=O)N1CCC[C@H]1C(=O)N[C@@H](CCCNC(=N)N)C(=O)O [Compound 8, [Ser^3(Acetyl)]-rGhrelin]",6.11

# The remaining lines, values ahead:
row,pEC50,SMILES
1,7.11,"CCCCCCCC(=O)OC[C@H](NC(=O)CNC(=O)CN)C(=O)N[C@@H](Cc1ccccc1)C(=O)N[C@@H](CC(C)C)C(=O)N[C@@H](CO)C(=O)N1CCC[C@H]1C(N)=O [Compound 47, [Gly^2]-Ghrelin (1-7)-amide] (H-GGS(Octanoyl)FLSP-NH2)"
2,7.01,"CCCCCCCCOC[C@H](NC(=O)CCCCN)C(=O)N[C@@H](Cc1ccccc1)C(=O)N[C@@H](CC(C)C)C(=O)NCc1ccccc1 [Compound 84, [N-Aminopentanoyl, Ser^3(Octyl)]-Ghrelin (3-5)-benzylamide]"
3,7.62,"CCCCCCCC(=O)OC[C@H](NC(=O)[C@H](CCCCN)NC(=O)CN)C(=O)N[C@@H](Cc1ccccc1)C(=O)N[C@@H](CC(C)C)C(=O)N[C@@H](CO)C(=O)N1CCC[C@H]1C(N)=O [Compound 46, [Lys^2]-Ghrelin (1-7)-amide] (H-GKS(Octanoyl)FLSP-NH2)"
4,6.92,"CC(C)C[C@H](NC(=O)[C@H](CCCCN)NC(=O)[C@H](C)NC(=O)[C@@H]1CCCN1C(=O)[C@@H]1CCCN1C(=O)[C@H](CCCCN)NC(=O)[C@H](CCCCN)NC(=O)[C@H](CO)NC(=O)[C@H](CCC(=O)O)NC(=O)[C@H](CCCCN)NC(=O)[C@H](CCCNC(=N)N)NC(=O)[C@H](CCC(N)=O)NC(=O)[C@H](CCC(N)=O)NC(=O)[C@@H](NC(=O)[C@H](CCCNC(=N)N)NC(=O)[C@H](CCC(N)=O)NC(=O)[C@H](Cc1c[nH]cn1)NC(=O)[C@H](CCC(=O)O)NC(=O)[C@@H]1CCCN1C(=O)[C@H](CO)NC(=O)[C@H](CC(C)C)NC(=O)[C@H](Cc1ccccc1)NC(=O)[C@H](CCCCN)NC(=O)[C@H](CO)NC(=O)CN)C(C)C)C(=O)N[C@@H](CCC(N)=O)C(=O)N1CCC[C@H]1C(=O)N[C@@H](CCCNC(=N)N)C(=O)O [Compound 72, [Lys^3]-hGhrelin]"
5,7.66,"CCCCCCCCOC[C@H](NC(=O)CCCCN)C(=O)N[C@@H](Cc1ccccc1)C(=O)N[C@@H](CC(C)C)C(=O)NCC [Compound 83, [N-Aminopentanoyl, Ser^3(Octyl)]-Ghrelin (3-5)-ethylamide]"
6,< 5.00,"CCCCCCCCOC[C@@H](NC(=O)[C@H](CO)NC(=O)CN)C(=O)N[C@H](Cc1ccccc1)C(=O)N[C@@H](CC(C)C)C(=O)N[C@@H](CO)C(=O)N1CCC[C@H]1C(N)=O [Compound 53, [^DSer^3(Octyl), ^DPhe^4]-Ghrelin (1-7)-amide]"
7,5.80,"CCCCCCCCOC[C@@H](NC(=O)CCCCN)C(=O)N[C@H](Cc1ccccc1)C(=O)N[C@@H](CCCCN)C(N)=O [Compound 77, [N-Aminopentanoyl, ^DSer^3(Octyl), ^DPhe^4, Lys^5]-Ghrelin (3-5)-amide]"
8,7.38,"CCCCCCCC(=O)OC[C@H](NC(=O)[C@H](CC(C)C)NC(=O)CN)C(=O)N[C@@H](Cc1ccccc1)C(=O)N[C@@H](CC(C)C)C(=O)N[C@@H](CO)C(=O)N1CCC[C@H]1C(N)=O [Compound 44, [Leu^2]-Ghrelin (1-7)-amide] (H-GLS(Octanoyl)FLSP-NH2)"
9,8.29,"CCCCCCCOC(=O)C[C@H](NC(=O)[C@H](CO)NC(=O)CN)C(=O)N[C@@H](Cc1ccccc1)C(=O)N[C@@H](CC(C)C)C(=O)N[C@@H](CO)C(=O)N1CCC[C@H]1C(=O)N[C@@H](CCC(=O)O)C(=O)N[C@@H](Cc1c[nH]cn1)C(=O)N[C@@H](CCC(N)=O)C(=O)N[C@@H](CCCNC(=N)N)C(=O)N[C@H](C(=O)N[C@@H](CCC(N)=O)C(=O)N[C@@H](CCC(N)=O)C(=O)N[C@@H](CCCNC(=N)N)C(=O)N[C@@H](CCCCN)C(=O)N[C@@H](CCC(=O)O)C(=O)N[C@@H](CO)C(=O)N[C@@H](CCCCN)C(=O)N[C@@H](CCCCN)C(=O)N1CCC[C@H]1C(=O)N1CCC[C@H]1C(=O)N[C@@H](C)C(=O)N[C@@H](CCCCN)C(=O)N[C@@H](CC(C)C)C(=O)N[C@@H](CCC(N)=O)C(=O)N1CCC[C@H]1C(=O)N[C@@H](CCCNC(=N)N)C(=O)O)C(C)C [Compound 54, [Asp^3(O-Heptyl)]-hGhrelin]"
10,8.24,"CCCCCCCCOC[C@H](NC(=O)[C@H](CO)NC(=O)CN)C(=O)N[C@@H](Cc1ccccc1)C(=O)N[C@@H](CC(C)C)C(=O)N[C@@H](CO)C(=O)N1CCC[C@H]1C(N)=O [Compound 50, [Ser^3(Octyl)]-Ghrelin (1-7)-amide]"

# Same assay, conditions: Ca-releasing activity (EC50, nM), Table 3, Example 9: protease fragments or synthetic peptides; CHO-GHSR62 cells
row,SMILES,EC50
1,"CCCCCCCC(=O)OC[C@H](NC(=O)[C@H](CO)NC(=O)CN)C(=O)N[C@@H](Cc1ccccc1)C(=O)N[C@@H](CC(C)C)C(=O)N[C@@H](CO)C(=O)N1CCC[C@H]1C(=O)N[C@@H](CCC(=O)O)C(=O)N[C@@H](Cc1cnc[nH]1)C(=O)N[C@@H](CCC(N)=O)C(=O)N[C@@H](CCCNC(=N)N)C(=O)N[C@H](C(=O)N[C@@H](CCC(N)=O)C(=O)N[C@@H](CCC(N)=O)C(=O)N[C@@H](CCCNC(=N)N)C(=O)N[C@@H](CCCCN)C(=O)N[C@@H](CCC(=O)O)C(=O)N[C@@H](CO)C(=O)N[C@@H](CCCCN)C(=O)N[C@@H](CCCCN)C(=O)N1CCC[C@H]1C(=O)N1CCC[C@H]1C(=O)N[C@@H](C)C(=O)N[C@@H](CCCCN)C(=O)N[C@@H](CC(C)C)C(=O)N[C@@H](CCC(N)=O)C(=O)N1CCC[C@H]1C(=O)N[C@@H](CCCNC(=N)N)C(=O)O)C(C)C [Compound 1, human Ghrelin]",2.6 nM

# Same assay, conditions: Ca-releasing activity EC50, CHO-GHSR62 cells (CHO cells expressing rat GHS receptor), FLIPR
row,SMILES,pEC50
1,"CCCCCCCC(=O)OC[C@H](NC(=O)[C@H](CO)NC(=O)CN)C(=O)N[C@@H](Cc1ccccc1)C(=O)N[C@@H](CC(C)C)C(=O)N[C@@H](CO)C(=O)N1CCC[C@H]1C(=O)N[C@@H](CCC(=O)O)C(=O)N[C@@H](Cc1cnc[nH]1)C(=O)N[C@@H](CCC(N)=O)C(=O)N[C@@H](CCCNC(=N)N)C(=O)N[C@H](C(=O)N[C@@H](CCC(N)=O)C(=O)N[C@@H](CCC(N)=O)C(=O)N[C@@H](CCCNC(=N)N)C(=O)N[C@@H](CCCCN)C(=O)N[C@@H](CCC(=O)O)C(=O)N[C@@H](CO)C(=O)N[C@@H](CCCCN)C(=O)N[C@@H](CCCCN)C(=O)N1CCC[C@H]1C(=O)N1CCC[C@H]1C(=O)N[C@@H](C)C(=O)N[C@@H](CCCCN)C(=O)N[C@@H](CC(C)C)C(=O)N[C@@H](CCC(N)=O)C(=O)N1CCC[C@H]1C(=O)N[C@@H](CCCNC(=N)N)C(=O)O)C(C)C [Compound 1, human Ghrelin]",8.89

# Same assay, conditions: Table 3, Example 9: protease fragments or synthetic peptides; CHO-GHSR62 cells; read-out: Ca-releasing activity (EC50)
row,pEC50,SMILES
1,7.00,"CCCCCCCC(=O)OC[C@H](NC(=O)[C@H](CO)NC(=O)CN)C(=O)N[C@@H](Cc1ccccc1)C(=O)N[C@@H](CC(C)C)C(=O)N[C@@H](CO)C(=O)N1CCC[C@H]1C(=O)N[C@@H](CCC(=O)O)C(=O)O [Compound 27, Ghrelin (1-8)]"
